Experimental data from the supplement of paper PMC10307832.

How the values were obtained:
Assay in all cases: relative viability (nuclei count vs DMSO), 5 days (fraction); higher = more cells survive
AT9283 + Crizotinib = compound: O=C(Nc1c[nH]nc1-c1nc2ccc(CN3CCOCC3)cc2[nH]1)NC1CC1 [AT9283] + C[C@@H](Oc1cc(-c2cnn(C3CCNCC3)c2)cnc1N)c1c(Cl)ccc(F)c1Cl [Crizotinib] (partner 1 µM)
Procedure, shortened: (§1)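 Relative viability equals treated-well nuclei counts divided by vehicle-well nuclei counts. Counts came from 4× images of lung cancer cell lines grown in 1536-well plates for 5 days after pin-tool dosing on the day after seeding. Dosing used one drug alone or a fixed anchor-drug dose plus five library-drug doses (not always all listed) in √10 steps, and values are medians of duplicate plates.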

Erlotinib + OSI-027 = compound: C#Cc1cccc(Nc2ncnc3cc(OCCOC)c(OCCOC)cc23)c1 [Erlotinib] + COc1cccc2cc(-c3nc([C@H]4CC[C@H](C(=O)O)CC4)n4ncnc(N)c34)[nH]c12 [OSI-027] (partner 0.5 µM)
Procedure, shortened: as §1

AT9283 + Decitabine = compound: O=C(Nc1c[nH]nc1-c1nc2ccc(CN3CCOCC3)cc2[nH]1)NC1CC1 [AT9283] + Nc1ncn([C@H]2C[C@H](O)[C@@H](CO)O2)c(=O)n1 [Decitabine] (partner 2 µM)
Procedure, shortened: as §1

AT9283 + AZD7762 = compound: O=C(Nc1c[nH]nc1-c1nc2ccc(CN3CCOCC3)cc2[nH]1)NC1CC1 [AT9283] + NC(=O)Nc1cc(-c2cccc(F)c2)sc1C(=O)N[C@H]1CCCNC1 [AZD7762] (partner 0.2 µM)
Procedure, shortened: as §1

Erlotinib + Navitoclax = compound: C#Cc1cccc(Nc2ncnc3cc(OCCOC)c(OCCOC)cc23)c1 [Erlotinib] + CC1(C)CCC(c2ccc(Cl)cc2)=C(CN2CCN(c3ccc(C(=O)NS(=O)(=O)c4ccc(N[C@H](CCN5CCOCC5)CSc5ccccc5)c(S(=O)(=O)C(F)(F)F)c4)cc3)CC2)C1 [Navitoclax] (partner 0.5 µM)
Procedure, shortened: as §1

Cell Line | relative viability (AT9283 + Crizotinib; first compound 0.003 µM) | relative viability (AT9283 + Crizotinib; first compound 0.03 µM) | relative viability (AT9283 + Crizotinib; first compound 0.09487 µM) | relative viability (AT9283 + Crizotinib; first compound 0.3 µM) | relative viability (Erlotinib + OSI-027; first compound 0.02 µM) | relative viability (Erlotinib + OSI-027; first compound 0.6325 µM) | relative viability (Erlotinib + OSI-027; first compound 2 µM) | relative viability (AT9283 + Decitabine; first compound 0.003 µM) | relative viability (AT9283 + Decitabine; first compound 0.03 µM) | relative viability (AT9283 + Decitabine; first compound 0.09487 µM) | relative viability (AT9283 + Decitabine; first compound 0.3 µM) | relative viability (AT9283 + AZD7762; first compound 0.003 µM) | relative viability (AT9283 + AZD7762; first compound 0.03 µM) | relative viability (AT9283 + AZD7762; first compound 0.09487 µM) | relative viability (AT9283 + AZD7762; first compound 0.3 µM) | relative viability (Erlotinib + Navitoclax; first compound 0.02 µM) | relative viability (Erlotinib + Navitoclax; first compound 0.2 µM) | relative viability (Erlotinib + Navitoclax; first compound 0.6325 µM) | relative viability (Erlotinib + Navitoclax; first compound 2 µM) | relative viability (Erlotinib + OSI-027; first compound 0.2 µM)
NCI-H2405 | 0.826 | 0.634 | 0.272 | 0.217 | 0.701 | 0.614 | 0.591 | 0.732 | 0.725 | 0.381 | 0.24 | 0.771 | 0.566 | 0.208 | 0.163 | 0.915 | 0.902 | 1.01 | 0.78 | 
HARA | 1.1 | 0.4 | 0.105 | 0.13 | 0.575 | 0.44 | 0.217 | 0.46 | 0.264 | 0.165 | 0.185 | 0.315 | 0.232 | 0.0942 | 0.158 | 1.16 | 1.08 | 0.88 | 0.964 | 0.492
NCI-H1437 | 1.04 | 0.732 | 0.443 | 0.243 | 0.856 | 0.832 | 0.716 | 0.47 | 0.599 | 0.426 | 0.306 | 1.11 | 0.98 | 0.431 | 0.291 |  | 1.15 |  | 0.976 | 0.919
NCI-H2170 | 1.22 | 0.73 | 0.236 | 0.198 | 0.687 | 0.566 | 0.403 | 0.466 | 0.366 | 0.228 | 0.156 | 0.794 | 0.485 | 0.162 | 0.153 | 0.513 | 0.377 | 0.451 | 0.216 | 0.748
201T | 0.996 | 1.02 | 0.478 | 0.468 | 0.804 | 0.846 | 0.664 | 0.654 | 0.849 | 0.322 | 0.345 | 0.609 | 0.527 | 0.45 | 0.31 | 1.22 | 1.2 | 1.2 | 1.17 | 0.862
NCI-H1792 | 0.933 | 0.993 | 0.984 | 0.811 | 0.728 | 0.586 | 0.362 | 0.499 | 0.56 | 0.567 | 0.345 | 0.601 | 0.647 | 0.432 | 0.262 | 0.451 | 0.545 | 0.84 | 0.579 | 0.561
NCI-H596 | 0.897 | 0.974 | 0.966 | 0.707 | 0.675 | 0.537 | 0.408 | 1.07 | 0.946 | 0.934 | 0.783 | 1.01 | 1.2 | 0.976 | 0.595 | 1.02 | 0.751 | 1.06 | 0.813 | 0.528
NCI-H1651 | 0.856 | 0.897 | 0.505 | 0.411 | 0.628 |  | 0.482 | 0.371 | 0.516 | 0.428 | 0.318 | 0.43 | 0.441 | 0.403 | 0.213 | 1.04 | 0.861 | 1.11 | 0.934 | 0.698
